# Settings: buffer; pH 7.4; 200.0 µM
row,SMILES,solubility kinetic
1,O=C(O)CCn1c(O)c(C=C2N=c3ccccc3=N2)sc1=S,> 50 µg/mL
2,Cc1ccc(N2CC(C(=O)NC3CC3)CC2=O)cc1 (stereo not given),> 38.7 µg/mL
3,O=C(NCc1nc(-c2ccc(C(F)(F)F)cc2)no1)Nc1ccc(F)cc1F,1.1 µg/mL
4,CC(C)N(C1=CC(=O)OC12CCCCC2)C(C)C,> 37.7 µg/mL
5,Cc1cccc(OCC(=O)NCC(C)(C)N2CCOCC2)c1,> 46 µg/mL
6,Cc1ccc(OCC(=O)N2CCN(C(=O)c3cccc(F)c3)CC2)cc1,> 53.5 µg/mL
7,C=CCN1C(=O)C(C)NC1=S (stereo not given),> 25.5 µg/mL
8,CC1CCN(C(=O)c2ccc(N3C(=O)C4CCC(C)CC4C3=O)cc2)CC1 (stereo not given),48.4 µg/mL
9,Nc1ccc(-c2nc3cc(N)ccc3o2)cc1,> 33.8 µg/mL
10,CC(C)Oc1ccc(N2CC(C(=O)NC3=NCCS3)CC2=O)cc1 (stereo not given),> 52.1 µg/mL
11,CCc1cccc2c1NC1(CCCC1)CC2C.Cl (stereo not given),< 0.6 µg/mL
12,N#Cc1nc(COc2ccc(F)cc2)oc1N1CCCCC1,11.7 µg/mL
13,CC(C)=C1SC(N2CCN(c3ccc(C)c(Cl)c3)CC2)=NC1=O,1.9 µg/mL
14,O=C(COC(=O)c1ccc(Cl)cc1)NCC1CCCCC1,5.4 µg/mL
15,Cc1ccc2cccc(OCc3ccc(Br)cc3)c2n1,0.9 µg/mL
16,O=c1[nH]c(/C=C\c2cccc(C(F)(F)F)c2)nc(O)c1[N+](=O)[O-],> 49.1 µg/mL
17,O=C(NC1CC1)c1sc2cc(F)ccc2c1Cl,9.4 µg/mL
18,C=CCn1c(SCC(=O)NCC2CCCO2)nc2sc(CC)cc2c1=O (stereo not given),> 59 µg/mL
19,Cc1cc(C)c(S(=O)(=O)c2ccc(F)cc2C)c(=O)[nH]1,> 44.3 µg/mL
20,S=C1NCN(C2CCCCC2)CN1c1ccccc1,> 41.3 µg/mL

row,SMILES,solubility kinetic
1,COc1ccc(C2CC(C)(c3ccc(OC)cc3)Nc3ccccc3N2)cc1 (stereo not given),< 0.4 µg/mL
2,COc1ccc(CNC(=O)C2CC(=O)N(C3CCCC3)C2)cc1 (stereo not given),> 47.5 µg/mL
3,O=C(COC(=O)/C=C/c1ccc(C(F)(F)F)cc1)NC1CCCC1,< 0.7 µg/mL
4,Cc1cnc(C(=O)OCC(=O)N2CCC(C)CC2)cn1,> 41.6 µg/mL
5,O=C1OCCC1Sc1nnc(-c2ccco2)n1-c1ccccc1 (stereo not given),> 49.1 µg/mL
6,Cl.c1cncc(CNC2CCCC2)c1,> 37.4 µg/mL
7,COCCOc1cc(COC)nc(-c2cccc(C)c2)n1,25.3 µg/mL
8,Cc1ccc(NC(=S)Nc2ccc(F)cc2)cc1C,12.2 µg/mL
9,CCc1[nH]c(C(=O)O)c(C)c1C(=O)OC,> 31.7 µg/mL
10,O=C(O)c1cccnc1SCC(=O)C12CC3CC(CC(C3)C1)C2,> 49.7 µg/mL
11,COc1ccc(/C=C2\Oc3cc(OC(=O)N4CCOCC4)ccc3C2=O)cc1,< 0.8 µg/mL
12,COc1ccc(/C=C/C(=O)NC(=S)N2CCN(C)CC2)cc1,> 47.9 µg/mL
13,COC(=O)c1nc(N)sc1C(C)C,> 30 µg/mL
14,Nc1ccc(-c2nc(-c3ccccc3)nc3ccccc23)cc1,0.5 µg/mL
15,CC(C)(C)S(=O)(=O)c1cnc(-c2cnccn2)nc1N,> 44 µg/mL
16,Cn1c(=O)c2c(ncn2CCOc2ccc(F)cc2)n(C)c1=O,13.9 µg/mL
17,Cn1c(/C(C#N)=C/c2ccc(O)cc2)nc2ccccc21,5.5 µg/mL
18,Cc1[nH]nc(SCC(=O)N2CCOCC2)c1[N+](=O)[O-],> 42.9 µg/mL
19,Cc1ccc(NC(=O)Nc2ccc3c(c2)CCC3)cc1,< 0.3 µg/mL
20,CC1(C)CNc2cc(N)ccc2S1,26.3 µg/mL

row,SMILES,solubility kinetic
1,Cc1ccccc1Nc1c(-c2ccccn2)nc2c(C)cccn12,1 µg/mL
2,COc1ccc2nc(SCC(=O)C(C)(C)C)[nH]c2c1,30.9 µg/mL
3,CN(C)CCOC(=O)NC12CC3CC(CC(C3)C1)C2.Cl,> 45.4 µg/mL
4,CCCCCC1CCC(c2ccc(/C(N)=N/O)cc2)CC1 (stereo not given),< 0.3 µg/mL
5,CN1CCN(S(=O)(=O)c2cccc(C(=O)N3CCN(c4ccccc4)CC3)c2)CC1,63.6 µg/mL
6,COc1ccc(CCNc2nc(C)cc(C)c2C#N)cc1OC,32.7 µg/mL
7,Cc1ccc(NC(=O)COC(=O)C2CC2(Cl)Cl)cc1C (stereo not given),47.1 µg/mL
8,COc1ccc(/C=C/C(=O)OC(C)CN2CCCCC2)cc1.Cl (stereo not given),49.4 µg/mL
9,CC(C)CN1C(=O)C(=O)N(CC(=O)c2ccc[nH]2)C1=O,40.7 µg/mL
10,CC1(C)C=C2C(=NN(c3ccccc3)C(N)=C2C#N)CO1,> 42 µg/mL
11,COc1ccc(C=O)c2[nH]c3c(Cl)ncnc3c12,3.4 µg/mL
12,O=C(N/N=C/c1ccc(N2CCOCC2)cc1)c1ccncc1,> 46.6 µg/mL
13,O=C1CCC(C(=O)OCC(=O)Nc2ccc(Cl)cc2C(F)(F)F)=NN1,> 56.7 µg/mL
14,CC(C)(C)P(=O)(N1CCOCC1)N1CCOCC1,> 41.4 µg/mL
15,O=C(CN1CCCCCC1)Nc1ccc(Br)cc1[N+](=O)[O-],0.4 µg/mL
16,Nc1cc(=O)[nH]c(SCC(=O)c2ccc(F)cc2)n1,> 41.9 µg/mL
17,C=COC(=O)c1sc2nc(C)cc(C)c2c1N,0.5 µg/mL
18,Cc1ccc(-c2csc3ncnc(N4CCN(C)CC4)c23)cc1C,45.7 µg/mL
19,COc1cccc(NC(=O)C2CCCN(S(C)(=O)=O)C2)c1 (stereo not given),> 46.9 µg/mL

# More lines, now with the values ahead:
row,solubility kinetic,SMILES
1,26.6 µg/mL,Cc1[nH]c2ccccc2c1C(=O)C(C)OC(=O)c1ccc(Cl)nc1 (stereo not given)
2,> 41 µg/mL,O=C(O)c1ccccc1C(=O)NCCCn1ccnc1
3,13 µg/mL,CC(C)N(Cc1ccccc1)S(=O)(=O)c1cccs1
4,24.4 µg/mL,Nc1cc(C(=O)OCC(=O)Nc2cccc(S(=O)(=O)N3CCOCC3)c2)ccc1Cl
5,> 49.9 µg/mL,O=C(C(=O)N1CCCCC1)c1c(-c2ccccc2)[nH]c2ccccc12
6,> 58 µg/mL,COc1ccc(CNC(=O)COC(=O)CN2C(=O)C3CC=CCC3C2=O)cc1 (stereo not given)
7,39.6 µg/mL,O=C(COc1ccccc1Cl)NCCNC(=O)c1cnccn1
8,> 41.3 µg/mL,CCc1c(SCCC(=O)O)nc2ccccc2c1C
9,> 43.6 µg/mL,O=C(COc1ccccc1)NCC(=O)N1CCCCCC1
10,43.9 µg/mL,CCC(=O)N(Cc1cc(=O)[nH]c2ccccc12)c1ccc(C)cc1C
11,35.7 µg/mL,Cc1nc(C(N)=O)c(N)n1CCc1ccccc1
12,30.7 µg/mL,CCC(C)NC(=O)c1ccc(CSCc2ccccc2Cl)o1 (stereo not given)
13,> 53.2 µg/mL,COc1ccc(NC(=O)C2CC(=O)N(c3ccccc3C)C2)c(OC)c1 (stereo not given)
14,27.6 µg/mL,Oc1ccccc1C=NCCN=Cc1ccccc1O
15,27.7 µg/mL,CC[C@H](C)[C@H](NC(=O)c1ccc(Cl)cc1)C(=O)OCC(=O)c1c(N)n(C)c(=O)n(C)c1=O
16,> 49.1 µg/mL,Cc1cccc(NC(=O)N2CCC(NC(=O)c3ccco3)CC2)c1
17,47.4 µg/mL,COc1ccccc1OCC(O)CNCc1ccc2c(c1)OCO2 (stereo not given)
18,> 50.2 µg/mL,CCOc1ccc(S(=O)(=O)NCc2cccnc2)cc1C(C)C
19,11.6 µg/mL,Cc1cccc(C)c1NC(=O)CN1C(=O)C(C)Oc2ccccc21 (stereo not given)
20,40.6 µg/mL,COc1ccccc1C(=O)c1c(C)c(CCC#N)n2ccccc12
21,< 0.1 µg/mL,Cc1cccc(NC(=O)Nc2ccc([N+](=O)[O-])cc2)n1

row,solubility kinetic,SMILES
1,1 µg/mL,N=C1SC(CC(=O)Nc2ccc([N+](=O)[O-])cc2)C(=O)N1c1ccccc1 (stereo not given)
2,> 40.3 µg/mL,Cc1ccc(NC(=O)CN2CCOCC2)cc1Cl
3,54.1 µg/mL,CCOC(=O)c1c(CC(C)C)csc1NC(=O)c1ccccc1C(=O)O
4,0.4 µg/mL,COc1ccc(NC(=S)N2CCN(Cc3ccc(C)cc3)CC2)cc1
5,> 50.1 µg/mL,COc1cccc(NC(=O)COC(=O)Cc2ccc(Cl)cc2)c1
6,> 49.3 µg/mL,CC(NC(=O)CCC(=O)NCc1ccc(F)cc1)c1ccccc1 (stereo not given)
7,8.8 µg/mL,CCCCON1C(=O)c2cccc3cccc(c23)C1=O
8,26.8 µg/mL,O=C(CN1CCCCC1)Nc1ccccc1Cl
9,> 49.2 µg/mL,O=C(O)c1nccnc1C(=O)Nc1ccccc1N1CCOCC1
10,19 µg/mL,COc1cccc(OC)c1C(=O)Nc1ccncc1
11,22.4 µg/mL,O=C(Nc1ccc(-c2ccccc2)cc1)c1ccco1
12,> 45.4 µg/mL,CC(C)c1ccccc1NC(=S)NCCCn1ccnc1
13,9.8 µg/mL,COC(=O)c1cc(-c2ccccc2)nc2nc(SC)[nH]c(=O)c12
14,> 42 µg/mL,Cn1c(CO)cnc1SCC(=O)c1ccc(F)cc1
15,> 39.3 µg/mL,Cc1nc(-c2ccc(C(=O)NCCO)cc2)cs1
16,0.2 µg/mL,Cc1c(Cl)ccc2c(C(N)=O)cc(-c3ccccn3)nc12
17,2.7 µg/mL,CCOc1ncccc1C(=O)Nc1ccc2c(c1)OCO2
18,3.1 µg/mL,CCn1c(=O)c2ccccc2n(Cc2ccccc2C)c1=O
19,4.3 µg/mL,O=C1OC(Nc2ccc3ncccc3c2)c2ccccc21 (stereo not given)
20,36.2 µg/mL,COCCNc1ncnc2c1[nH]c1ccccc12
21,45.6 µg/mL,CCCS(=O)(=O)N1CCCC(C(=O)Oc2ccccc2Cl)C1 (stereo not given)

row,solubility kinetic,SMILES
1,1.3 µg/mL,COc1cc(OC)cc(C(=O)NCCCCc2ccccc2)c1
2,6 µg/mL,COc1ccc(CCNC(=O)COc2ccc3c(C)cc(=O)oc3c2)cc1
3,2.6 µg/mL,CCN=C1SC(C(=O)Nc2cccc(Cl)c2)CC(=O)N1CC (stereo not given)
4,6.2 µg/mL,Cc1ccc(C(=O)CCC(=O)Nc2cc(C)ccn2)cc1
5,12 µg/mL,Cc1c(O)ccc(C(=O)CN2CCN(c3ccccc3)CC2)c1O
6,2 µg/mL,O=C(Nc1ccccc1)/C(=C\c1ccc(F)cc1)NC(=O)c1ccco1
7,> 53.6 µg/mL,COc1ccc(C)cc1NC(=O)COC(=O)C1COc2ccccc2O1 (stereo not given)
8,> 37.4 µg/mL,COc1ccccc1NC(=O)C1CC(C)OC1=O (stereo not given)
9,31.8 µg/mL,Cc1cccc(NC(=O)c2ccco2)c1C
10,> 43.7 µg/mL,CCOc1ccccc1NC(=O)NCCN1CCCCC1
11,> 33.1 µg/mL,Cn1ccnc1C(=O)c1ccccc1Cl
12,1.3 µg/mL,CC(C)C(NC(=O)C1CCCCC1)C(=O)NCCc1ccccc1 (stereo not given)
13,13 µg/mL,COc1ccccc1CNc1ncnc2cc(OC)c(OC)cc12
14,> 46.5 µg/mL,O=C(NNC1CC(=O)N(c2ccccc2)C1=O)c1cccnc1 (stereo not given)
15,1 µg/mL,CCOc1ncccc1C(=O)Nc1ccc(F)c(Cl)c1
16,> 60.2 µg/mL,COc1ccccc1NC(=O)COC(=O)Cn1cnc2c1c(=O)n(C)c(=O)n2C
17,> 49.6 µg/mL,Cc1ccc(-n2c(C)nnc2SC(C)C(=O)N2CCCC2)cc1 (stereo not given)
18,49.9 µg/mL,C=CCNC(=O)c1cccc(NS(=O)(=O)c2ccc(Cl)cc2)c1
19,1.8 µg/mL,O=C(Nc1ccccc1)N1CCc2c([nH]c3ccccc23)C1C(F)(F)F (stereo not given)

# Reference: PubChem BioAssay AID1996
